Measured values as given in US11192852B2, “Pyrazolyl and pyrimidinyl tricyclic enones as antioxidant inflammation modulators” (REATA PHARMACEUTICALS, INC., priority 2010, dated 2021).

What was measured:
[1] = test system: Nrf2 transcription factor (human NQO1-ARE reporter) in HuH7 cells; assay: NQO1-ARE Luciferase Reporter Assay; assay type: cell-based; details: Huh-7, 62.5 nM, 18 h, fold over DMSO vehicle, Firefly normalized to Renilla
Text: NQO1-ARE Luciferase Reporter Assay.
This assay allows for quantitative assessment of the endogenous activity of the Nrf2 transcription factor in cultured mammalian cells. Expression of Firefly luciferase from NQO1-ARE luciferase reporter plasmid is controlled by binding of Nrf2 to a specific enhancer sequence corresponding to the antioxidant response element (ARE) that was identified in the promoter region of the human NADPH:quinone oxidoreductase 1 (NQO1) gene (Xie et al., 1995). The plasmid was constructed by inserting a sequence:
5′-[…]-3′ (SEQ ID NO:1) encompassing the human NQO1-ARE into the pLuc-MCS vector using HindIII/XhoI cloning sites (GenScript Corp., Piscataway, N.J.). The assay is performed in HuH7 cells maintained in DMEM (Invitrogen) supplemented with 10% FBS and 100 U/ml (each) of penicillin and streptomycin. For the assay, cells are plated in 96-well plates at 17,000 cells per well. Twenty four hours later, the cells are co-transfected with 50 ng each of NQO1-ARE reporter plasmid and pRL-TK plasmid using Lipofectamine 2000 transfection reagent (Invitrogen). pRL-TK plasmid constitutively expresses Renilla luciferase and is used as an internal control for normalization of transfection levels. Thirty hours after transfection, the cells are treated with compounds (at concentrations ranging from 0 to 1 μM) for eighteen hours. Firefly and Renilla luciferase activity is assayed by Dual-Glo Luciferase Assay (Promega Corp., Madison, Wis.), the luminescence signal is measured on an L-Max II luminometer (Molecular Devices). Firefly luciferase activity is normalized to the Renilla activity, and fold induction over a vehicle control (DMSO) of normalized Firefly activity is calculated. The fold induction at 62.5 nM concentration is used for comparing relative potencies of compounds to induce Nrf2 transcriptional activity. See Xie T, Belinsky M, Xu Y, Jaiswal A K. ARE- and TRE-mediated regulation of gene expression. Response to xenobiotics and antioxidants. J Biol Chem. (1995) 270(12):6894-6900, which is incorporated herein by reference.

[2] = test system: IFNγ-induced NO production in RAW264.7 mouse macrophages; assay: Suppression of IFNγ-induced nitric oxide production (Griess reagent); assay type: cell-based; details: 2 h pre-treatment (0-200 nM), then IFNγ 24 h, normalized to cell viability
Text: Nitric Oxide Production and Cell Viability.

[3] = Mus musculus, RAW264.7, RAW264.7 cells

Compound | fold induction at 0.0625 µM [1] | IC50 [2, 3] [nM] | IC50 ([2]; RAW264.7 cells) [nM]
C[C@@H]1C(=O)C(C#N)=C[C@]2(C)c3nn(C)c(-c4ccccc4)c3CC[C@@H]12 (racemic) [TX63541] | 4.4 | 6 | –
Cn1cc2c(n1)[C@@]1(C)C=C(C#N)C(=O)C(C)(C)[C@@H]1CC2 [TX63341] | 1.7 | – | 70
Cn1nc2c(c1-c1ccccc1)CC[C@H]1C(C)(C)C(=O)C(C#N)=C[C@]21C [TX63465] | 4.8 | 18.3 | –
Cc1ncc2c(n1)[C@@]1(C)C=C(C#N)C(=O)C(C)(C)[C@@H]1CC2 [TX63468] | 2 | 64 | –
Cn1nc2c(c1-c1cccnc1)CC[C@H]1C(C)(C)C(=O)C(C#N)=C[C@]21C [TX63503] | 5.5 | 17 | –
Cn1nc2c(c1-c1ccncc1)CC[C@H]1C(C)(C)C(=O)C(C#N)=C[C@]21C [TX63505] | 6.8 | 16 | –
Cn1nc2c(c1-c1cccc(F)c1)CC[C@H]1C(C)(C)C(=O)C(C#N)=C[C@]21C [TX63506] | 3.2 | 25 | –
Cc1cccc(-c2c3c(nn2C)[C@@]2(C)C=C(C#N)C(=O)C(C)(C)[C@@H]2CC3)c1 [TX63512] | 1.4 | 25 | –
COc1cccc(-c2c3c(nn2C)[C@@]2(C)C=C(C#N)C(=O)C(C)(C)[C@@H]2CC3)c1 [TX63513] | 2.9 | 25 | –
Cn1nc2c(c1-c1ccccc1F)CC[C@H]1C(C)(C)C(=O)C(C#N)=C[C@]21C [TX63519] | 2.5 | 21 | –
Cn1nc2c(c1NC(=O)c1ccccc1)CC[C@H]1C(C)(C)C(=O)C(C#N)=C[C@]21C [TX63531] | 1.1 | > 200 | –
Cn1nc2c(c1-c1ccccc1)CC[C@H]1CC(=O)C(C#N)=C[C@]21C [TX63540] | 1.6 | 66.8 | –
CC(C)c1c2c(nn1C)[C@@]1(C)C=C(C#N)C(=O)C(C)(C)[C@@H]1CC2 [TX63547] | 3.1 | 87 | –
Cn1nc2c(c1Cc1ccccc1)CC[C@H]1C(C)(C)C(=O)C(C#N)=C[C@]21C [TX63550] | 1.8 | 54 | –
CC1(C)C(=O)C(C#N)=C[C@]2(C)c3nc(-c4ccccc4)ncc3CC[C@@H]12 [TX63552] | 1.9 | 24 | –
Cc1ncc2c(n1)[C@@]1(C)C=C(C#N)C(=O)[C@@H](C)[C@@H]1CC2 [TX63554] | 1.9 | 42 | –
CC(C)(C)c1ncc2c(n1)[C@@]1(C)C=C(C#N)C(=O)C(C)(C)[C@@H]1CC2 [TX63561] | 2.4 | 44 | –
CN1C(=O)C(C#N)=C[C@]2(C)c3nn(C)c(-c4ccccc4)c3CC[C@@H]12 [TX63568] | 1.3 | > 200 | –
C[C@@H]1C(=O)C(C#N)=C[C@]2(C)c3nc(-c4ccccc4)ncc3CC[C@@H]12 [TX63569] | 2 | 9.8 | –
Cc1nc2c(c(=O)n1C)CC[C@H]1C(C)(C)C(=O)C(C#N)=C[C@]21C [TX63584] | 3.1 | > 200 | –
CC1(C)C(=O)C(C#N)=C[C@]2(C)c3nc(-c4cccnc4)ncc3CC[C@@H]12 [TX63586] | 2.9 | 22 | –
Cn1cc(-c2c3c(nn2C)[C@@]2(C)C=C(C#N)C(=O)C(C)(C)[C@@H]2CC3)cn1 [TX63588] | 5.2 | 33 | –
CC[C@@H]1C(=O)C(C#N)=C[C@]2(C)c3nc(-c4ccccc4)ncc3CC[C@@H]12 [TX63598] | 1.9 | 12 | –
CC[C@@H]1C(=O)C(C#N)=C[C@]2(C)c3nn(C)c(-c4ccccc4)c3CC[C@@H]12 [TX63599] | 3.2 | 14 | –
Cn1nc2c(c1Cl)CC[C@H]1C(C)(C)C(=O)C(C#N)=C[C@]21C [TX63604] | 3.4 | 49 | –
CC1(C)C(=O)C(C#N)=C[C@]2(C)c3c(c(-c4ccccc4)nn3-c3ccccc3)CC[C@@H]12 [TX63605] | 2.8 | 37 | –

Compound | fold induction at 0.0625 µM [1] | IC50 [2, 3] [nM] | IC50 ([2]; RAW264.7 cells) [nM]
Cn1nc2c(c1-c1ccccc1)CC[C@H]1[C@H](Cc3ccccc3)C(=O)C(C#N)=C[C@]21C [TX63607] | 1 | > 200 | –
COc1nc(-c2cccnc2)nc2c1CC[C@H]1[C@H](C)C(=O)C(C#N)=C[C@]21C [TX63724] | 4.9 | 3.1 | –
C[C@@H]1C(=O)C(C#N)=C[C@]2(C)c3nn(C)c(N4C(=O)NC(C)(C)C4=O)c3CC[C@@H]12 [TX63776] | – | > 200 | –
C[C@@H]1C(=O)C(C#N)=C[C@]2(C)c3nn(C)c(-c4ccccc4)c3CC[C@@H]12 [TX63791] | – | 2.3 | –
C[C@H]1C(=O)C(C#N)=C[C@@]2(C)c3nn(C)c(-c4ccccc4)c3CC[C@H]12 [TX63792] | – | 147 | –
COc1nc(OC)c2c(n1)[C@@]1(C)C=C(C#N)C(=O)[C@@H](C)[C@@H]1CC2 [TX63793] | – | – | 2.5
COc1nc(OC)c2c(n1)[C@]1(C)C=C(C#N)C(=O)[C@H](C)[C@H]1CC2 [TX63794] | – | 88.5 | –
Cn1nc2c(c1-c1ccccc1)CC[C@H]1C(C)(C)C(=O)C(C(F)(F)F)=C[C@]21C [TX63803] | – | 50 | –
Cn1nc2c(c1-c1ccccc1)C(=O)C[C@H]1C(C)(C)C(=O)C=C[C@]21C [TX63804] | – | > 200 | –
CCCCNc1nc(C)nc2c1CC[C@H]1[C@H](C)C(=O)C(C#N)=C[C@]21C [TX63827] | – | 59 | –
C[C@@H]1C(=O)C(C(F)(F)F)=C[C@]2(C)c3nn(C)c(-c4ccccc4)c3CC[C@@H]12 [TX63829] | – | 22 | –
Cn1nc2c(c1-c1ccccc1)CC[C@H]1C(C)(C)C(=O)[C@]3(C#N)O[C@@H]3[C@]21C [TX63834] | – | 105 | –
C[C@@H]1C(=O)C(C#N)=C[C@]2(C)c3n[nH]c(-c4ccccc4)c3CC[C@@H]12 [TX63836] | – | 6.1 | –
C[C@@H]1C(=O)[C@]2(C#N)O[C@@H]2[C@]2(C)c3nn(C)c(-c4ccccc4)c3CC[C@@H]12 [TX63848] | – | 9.5 | –
C[C@@H]1C(=O)C(C#N)=C[C@]2(C)c3nn(C)c(-c4cn(C)[n+]([O-])c4)c3CC[C@@H]12 [TX63849] | – | > 200 | –
CC(=O)n1nc2c(c1-c1ccccc1)CC[C@H]1[C@H](C)C(=O)C(C#N)=C[C@]21C [TX63850] | – | 8.9 | –
C[C@@H]1C(=O)C(C#N)=C[C@]2(C)c3nn(C)c(-c4ccccn4)c3CC[C@@H]12 [TX63851] | – | 5.1 | –
CNc1nc(C)nc2c1CC[C@H]1[C@H](C)C(=O)C(C#N)=C[C@]21C [TX63852] | – | 30 | –
COc1nc(C(C)(C)C)nc2c1CC[C@H]1[C@H](C)C(=O)C(C#N)=C[C@]21C [TX63853] | – | 31 | –
Cc1nnc(-c2c3c(nn2C)[C@@]2(C)C=C(C#N)C(=O)[C@@H](C)[C@@H]2CC3)o1 [TX63857] | – | 6.3 | –
CCOC(=O)n1nc2c(c1-c1ccccc1)CC[C@H]1[C@H](C)C(=O)C(C#N)=C[C@]21C [TX63871] | – | 7.5 | –
Cc1noc(-c2c3c(nn2C)[C@@]2(C)C=C(C#N)C(=O)[C@@H](C)[C@@H]2CC3)n1 [TX63872] | – | 4.6 | –
COc1ncnc2c1CC[C@H]1[C@H](C)C(=O)C(C#N)=C[C@]21C [TX63874] | – | 5.5 | –
CCOc1nc(C(C)(C)C)nc2c1CC[C@H]1[C@H](C)C(=O)C(C#N)=C[C@]21C [TX63900] | – | 40 | –
CC(C)n1cnc(-c2c3c(nn2C)[C@@]2(C)C=C(C#N)C(=O)C(C)(C)[C@@H]2CC3)n1 [TX63905] | – | 129 | –
